Activity calls are given as the source filed them.
Key:
[1] = OVCAR-3 cell viability loss – plate reader, dry powder samples, PAX8 inhibitor project, dose response (AID 743044); type: functional, cell-based
[2] = IGROV1 cell killing – plate reader, dry powder samples, PAX8 inhibitor project, dose response (AID 743043); type: functional, cell-based; settings: IGROV-1
Paired box protein Pax-8 = Paired box protein Pax-8 (Homo sapiens, UniProt Q06710); experiment: PAX8 transcriptional activity inhibition in RMG-I – RMG-I cells, luciferase, cherry-pick, dose response (AID 687027); type: functional, cell-based;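 note: luciferase reporter driven by Pax8 target thyroperoxidase promoter measured by SteadyGlo luminescence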
[3] = viability of uninfected HEp-2 cells – cell-based, HTS, cytotoxicity control for RSV inhibitor project, dose response (AID 2410); type: functional; settings: human respiratory syncytial virus
[4] = biological target: Voltage-dependent T-type calcium channel subunit alpha-1H (Homo sapiens, UniProt O95180); type: functional;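 note: channel activity triggered by adding a high calcium stimulation buffer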
[5] = biological target: FAD-linked sulfhydryl oxidase ALR (Homo sapiens, UniProt P55789); experiment: ALR-catalysed DTT oxidation blockers – biochemical, H2O2 detection, luminescence, cherry-pick, dose response (AID 493248)
[6] = A cytotoxicity screen of small molecule inhibitors of the PhoP region in Salmonella typhi identified in the primary screen. [Related pubchem assays: 1850, 1864, 1985 ]; type: functional
[7] = biological target: Peroxisome proliferator-activated receptor gamma/Nuclear receptor coactivator 3 (Homo sapiens, UniProt P37231); experiment: (§1) TR-FRET dose response biochemical High Throughput Screening assay for agonists of the steroid receptor coactivator 3 (SRC-3) recruitment by the peroxisome proliferator-activated receptor gamma (PPAR gamma): non-selective agonists. [Related pubchem assays: 1301 (Confirmation screen.), 1048 (Primary screen.)]; type: functional
[8] = biological target: Peroxisome proliferator-activated receptor gamma/Nuclear receptor coactivator 1 (Homo sapiens, UniProt P37231); experiment: as §1, with “1 (SRC-1)” for “3 (SRC-3)”, “assays (depositor defined):AID1300, AID1808, AID504735, AID631]” for “assays: 1301 (Confirmation screen.), 1048 (Primary screen.)]”; type: protein assay
[9] = biological target: Peroxisome proliferator-activated receptor gamma/Nuclear receptor coactivator 2 (Homo sapiens, UniProt P37231); experiment: TR-FRET dose response biochemical High Throughput Screening assay for agonists of the steroid receptor coactivator 2 (SRC-2) recruitment by the peroxisome proliferator-activated receptor gamma (PPAR gamma): non-selective agonists. [Related pubchem assays: 1297, 1032 ]; type: functional
[10] = biological target: T1, Mannose-6-phosphate isomerase (Homo sapiens, UniProt P34949); experiment: MPI inhibition at elevated mannose 6-phosphate – biochemical, fluorescence intensity, high mannose 6-phosphate, primary screen (AID 1220)
T1 sequence (P34949 whole entry): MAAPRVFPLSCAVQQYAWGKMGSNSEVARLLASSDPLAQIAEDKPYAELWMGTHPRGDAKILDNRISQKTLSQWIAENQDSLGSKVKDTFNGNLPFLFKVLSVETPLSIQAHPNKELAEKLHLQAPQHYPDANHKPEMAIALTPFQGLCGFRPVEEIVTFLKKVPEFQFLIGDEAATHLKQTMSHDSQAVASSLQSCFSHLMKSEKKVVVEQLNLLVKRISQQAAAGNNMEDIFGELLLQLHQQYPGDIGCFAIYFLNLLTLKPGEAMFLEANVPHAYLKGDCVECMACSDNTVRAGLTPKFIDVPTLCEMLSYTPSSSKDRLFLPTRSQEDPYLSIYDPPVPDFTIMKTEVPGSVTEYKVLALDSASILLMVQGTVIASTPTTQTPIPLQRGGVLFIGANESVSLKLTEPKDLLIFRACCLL

INS1 = experiment: INS-1E survival protection against cytokine death – cell-based, luminescence, retest, dose response (AID 449756); type: functional; settings: Rattus norvegicus;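 note: cell death triggered by IL-1 beta plus TNF-alpha plus IFN-gamma mixture; protective hits raise ATP signal compared with cytokine alone wells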
H9c2 = experiment: cells; type: functional, cell-based; settings: Rattus norvegicus, H9c2, Myocardium;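 note: confirmatory concentration-response retest of ultra-high-throughput screening hits for modulation of myocardial damage; cell death induced by hydrogen peroxide oxidative stress; compound pretreatment for 60 min then peroxide exposure for 2 h; potency is for protecting the cells against peroxide damage rather than for killing them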
[11] = biological target: T2, Corticotropin-releasing factor receptor 2/Corticotropin-releasing factor-binding protein (Homo sapiens, UniProt P24387+Q13324); experiment: Dose Response confirmation of uHTS hits for small molecule antagonists of the CRF-binding protein and CRF-R2 receptor complex.; type: functional; settings: read-out: IC50_Mean
T2 sequence (Q13324 whole entry): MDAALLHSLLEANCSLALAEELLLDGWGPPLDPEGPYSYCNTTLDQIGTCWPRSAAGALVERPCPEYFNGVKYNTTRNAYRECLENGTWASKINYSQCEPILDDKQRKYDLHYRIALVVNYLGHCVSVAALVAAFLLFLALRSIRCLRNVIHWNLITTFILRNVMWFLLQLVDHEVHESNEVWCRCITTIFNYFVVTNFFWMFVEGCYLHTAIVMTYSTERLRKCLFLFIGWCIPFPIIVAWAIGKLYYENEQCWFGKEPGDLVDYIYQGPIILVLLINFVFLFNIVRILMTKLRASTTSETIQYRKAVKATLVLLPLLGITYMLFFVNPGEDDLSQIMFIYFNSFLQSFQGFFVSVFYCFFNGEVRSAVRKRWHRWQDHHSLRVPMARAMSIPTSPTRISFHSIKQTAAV
T2 sequence (P24387 whole entry): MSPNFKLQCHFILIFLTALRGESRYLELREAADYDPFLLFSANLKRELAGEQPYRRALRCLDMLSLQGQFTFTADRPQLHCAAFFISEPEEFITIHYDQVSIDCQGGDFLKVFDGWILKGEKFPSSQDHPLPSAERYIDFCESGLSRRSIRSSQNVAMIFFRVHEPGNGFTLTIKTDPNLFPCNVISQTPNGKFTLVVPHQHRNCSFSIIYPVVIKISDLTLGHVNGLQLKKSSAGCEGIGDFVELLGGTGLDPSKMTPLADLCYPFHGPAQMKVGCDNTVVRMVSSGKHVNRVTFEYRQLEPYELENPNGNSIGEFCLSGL

[12] = biological target: T2, Corticotropin-releasing factor receptor 2/Corticotropin-releasing factor-binding protein; experiment: activators of CRF receptor 2 with binding protein – uHTS hits, confirmation (AID 602473); type: functional; settings: read-out: EC50_Mean
[13] = biological target: 72 kDa type IV collagenase (Homo sapiens, UniProt P08253); experiment: Dose Response validation of uHTS RPN11 inhibitor hits using a MMP-2 Fluorescence assay.; type: functional
[14] = biological target: 26S proteasome non-ATPase regulatory subunit 14 (Homo sapiens, UniProt O00487); experiment: inhibition of proteasome subunit RPN11 – biochemical, fluorescence polarization, uHTS hits, confirmation (AID 602368); type: functional
Prothrombin [15] = biological target: Prothrombin (Bos taurus, UniProt P00735); experiment: thrombin protease inhibitors – biochemical, fluorescence polarization, uHTS hits, dose response (AID 602369); type: functional
[16] = DRD fibroblast viability loss – cell-based, non-viral oncogenic, luminescence, dose response (AID 1934); type: functional; settings: Homo sapiens
BJ [17] = experiment: BJ-TERT fibroblast viability loss – cell-based, RAS-independent, luminescence, dose response (AID 1933); type: functional; settings: Homo sapiens
BJ [18] = experiment: cells; type: functional, cell-based; settings: Homo sapiens
BJ [19] = experiment: BJ-TERT-LT-ST fibroblast viability loss – cell-based, RAS-independent, luminescence, dose response (AID 1935); type: functional; settings: Homo sapiens;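 note: BJ fibroblasts immortalized with TERT plus LT and ST oncogenes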
[20] = biological target: T3, Polyadenylate-binding protein 1 (Homo sapiens, UniProt P11940); experiment: MLLE binding blockers, Cy5 peptide tracer – biochemical, fluorescence polarization, Cy5-PAM2 peptide, secondary, miRNA deadenylation inhibitor project, dose response (AID 602260); type: functional; settings: read-out: IC50_Mean
Prothrombin [21] = biological target: Prothrombin (Homo sapiens, UniProt P00734); experiment: Thrombin 1536 HTS Dose Response Confirmation. [Related pubchem assays: 1046 (Thrombin 1536 HTS; hits were confirmed in this assay)]; type: functional
[22] = biological target: T3, Polyadenylate-binding protein 1; experiment: MLLE domain peptide-binding blockers, IC50 – biochemical, fluorescence polarization, FITC-PAM2 peptide, dose response (AID 602259); type: functional; settings: read-out: IC50_Mean
[23] = blockers of HIV-1 ZM109 envelope-driven cell-cell fusion – HeLa effector, CEM target cells, luciferase, cherry-pick, dose response (AID 652058); type: functional, cell-based;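 note: luciferase signal from HIV-1 Env mediated cell-cell fusion of effector and target cells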
[24] = blockers of HIV-1 envelope-mediated cell-cell fusion – cherry-pick, dose response (AID 652057); type: functional, cell-based
[25] = off-target signal loss in HeLa-CEM21 co-culture – HeLa F-luc CTL cells, cherry-picked, counter-screen for HIV-1 Env fusion inhibitor project, dose response (AID 652040); type: functional, cell-based;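 note: potency for signal decrease marking cytotoxic or nonspecific inhibition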
[26] = HIV-1 AD8 envelope cell-cell fusion blockers – cherry-pick, dose response (AID 652062); type: functional, cell-based;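 note: luciferase signal from cell-cell fusion driven by HIV-1 clade B AD8 Env; potency is for inhibitors of fusion seen as a drop in luminescence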
Kallikrein-7 = Kallikrein-7 (Homo sapiens, UniProt P49862); experiment: Fluorescence Intensity-based biochemical primary high throughput dose response assay to identify activators of kallikrein-7 (K7) zymogen.

T3 sequence (P11940 whole entry): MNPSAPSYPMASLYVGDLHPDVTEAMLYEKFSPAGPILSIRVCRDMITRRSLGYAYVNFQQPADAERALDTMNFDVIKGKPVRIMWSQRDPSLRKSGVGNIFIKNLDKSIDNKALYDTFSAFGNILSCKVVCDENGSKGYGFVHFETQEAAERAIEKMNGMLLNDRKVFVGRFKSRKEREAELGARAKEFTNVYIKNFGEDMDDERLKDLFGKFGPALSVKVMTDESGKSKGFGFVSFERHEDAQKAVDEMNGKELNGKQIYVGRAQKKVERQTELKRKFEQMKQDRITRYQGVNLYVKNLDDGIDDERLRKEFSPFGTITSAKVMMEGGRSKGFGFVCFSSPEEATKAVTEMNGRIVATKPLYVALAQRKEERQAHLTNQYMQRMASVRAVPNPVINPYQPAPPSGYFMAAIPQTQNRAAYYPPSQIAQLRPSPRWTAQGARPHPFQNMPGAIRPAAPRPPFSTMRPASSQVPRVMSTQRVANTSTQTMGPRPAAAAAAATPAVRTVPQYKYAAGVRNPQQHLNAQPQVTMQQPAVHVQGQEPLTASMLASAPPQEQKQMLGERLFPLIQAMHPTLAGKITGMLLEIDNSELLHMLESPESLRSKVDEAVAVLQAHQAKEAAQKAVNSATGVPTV
Peroxisome proliferator-activated receptor gamma/Nuclear receptor coactivator 2, sequence (P37231 whole entry): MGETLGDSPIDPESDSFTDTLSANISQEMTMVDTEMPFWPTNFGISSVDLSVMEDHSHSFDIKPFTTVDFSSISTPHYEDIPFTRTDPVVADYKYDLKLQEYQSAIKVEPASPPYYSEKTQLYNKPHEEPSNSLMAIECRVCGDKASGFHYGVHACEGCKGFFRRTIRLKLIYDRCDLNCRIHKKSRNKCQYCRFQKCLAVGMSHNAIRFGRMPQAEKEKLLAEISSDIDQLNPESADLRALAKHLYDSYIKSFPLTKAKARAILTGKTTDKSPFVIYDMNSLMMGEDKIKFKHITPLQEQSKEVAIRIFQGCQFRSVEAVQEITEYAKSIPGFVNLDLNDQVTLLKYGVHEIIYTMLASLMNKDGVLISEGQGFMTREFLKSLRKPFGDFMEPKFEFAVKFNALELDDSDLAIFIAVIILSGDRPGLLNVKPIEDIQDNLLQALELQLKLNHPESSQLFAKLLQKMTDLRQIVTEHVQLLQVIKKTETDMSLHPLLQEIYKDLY
Peroxisome proliferator-activated receptor gamma/Nuclear receptor coactivator 2, sequence (Q15596 whole entry, further chain): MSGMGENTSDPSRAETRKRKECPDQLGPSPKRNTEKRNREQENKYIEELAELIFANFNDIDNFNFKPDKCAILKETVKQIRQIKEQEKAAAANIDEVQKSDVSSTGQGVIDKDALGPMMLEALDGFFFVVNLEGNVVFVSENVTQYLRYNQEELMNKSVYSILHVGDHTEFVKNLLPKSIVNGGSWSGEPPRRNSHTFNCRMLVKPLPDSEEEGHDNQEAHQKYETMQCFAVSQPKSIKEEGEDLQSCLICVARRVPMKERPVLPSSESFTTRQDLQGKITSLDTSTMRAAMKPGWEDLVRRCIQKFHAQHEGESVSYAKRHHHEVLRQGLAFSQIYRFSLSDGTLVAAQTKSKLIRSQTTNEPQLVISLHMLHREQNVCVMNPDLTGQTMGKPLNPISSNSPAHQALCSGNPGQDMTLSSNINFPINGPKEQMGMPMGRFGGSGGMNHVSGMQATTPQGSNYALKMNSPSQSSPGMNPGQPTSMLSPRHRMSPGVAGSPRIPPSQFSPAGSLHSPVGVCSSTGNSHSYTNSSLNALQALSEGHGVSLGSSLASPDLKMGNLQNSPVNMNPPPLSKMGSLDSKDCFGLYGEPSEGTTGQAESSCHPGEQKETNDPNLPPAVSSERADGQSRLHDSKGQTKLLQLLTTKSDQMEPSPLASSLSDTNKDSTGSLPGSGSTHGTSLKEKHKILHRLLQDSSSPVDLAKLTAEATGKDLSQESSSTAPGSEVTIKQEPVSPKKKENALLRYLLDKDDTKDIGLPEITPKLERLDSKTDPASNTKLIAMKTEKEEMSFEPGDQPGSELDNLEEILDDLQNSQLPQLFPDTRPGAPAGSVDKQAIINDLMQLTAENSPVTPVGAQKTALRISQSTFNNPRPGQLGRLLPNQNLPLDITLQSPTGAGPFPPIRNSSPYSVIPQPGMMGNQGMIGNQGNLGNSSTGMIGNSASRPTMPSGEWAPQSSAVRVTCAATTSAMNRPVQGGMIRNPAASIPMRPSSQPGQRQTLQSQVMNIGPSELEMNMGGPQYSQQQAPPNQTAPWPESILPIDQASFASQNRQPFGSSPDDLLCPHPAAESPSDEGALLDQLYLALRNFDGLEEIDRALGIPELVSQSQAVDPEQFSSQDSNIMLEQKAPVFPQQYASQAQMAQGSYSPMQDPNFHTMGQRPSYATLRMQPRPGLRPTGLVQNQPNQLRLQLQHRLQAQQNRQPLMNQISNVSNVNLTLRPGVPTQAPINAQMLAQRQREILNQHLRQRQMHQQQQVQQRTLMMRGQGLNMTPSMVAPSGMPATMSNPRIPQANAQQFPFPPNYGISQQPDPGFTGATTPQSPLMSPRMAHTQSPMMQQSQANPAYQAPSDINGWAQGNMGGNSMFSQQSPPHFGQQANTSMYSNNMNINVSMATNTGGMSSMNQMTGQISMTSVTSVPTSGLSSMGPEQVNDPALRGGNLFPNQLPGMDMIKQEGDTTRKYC
Peroxisome proliferator-activated receptor gamma/Nuclear receptor coactivator 1, sequence (P37231 whole entry): as the sequence (P37231 whole entry) above
Peroxisome proliferator-activated receptor gamma/Nuclear receptor coactivator 1, sequence (Q15788 whole entry, further chain): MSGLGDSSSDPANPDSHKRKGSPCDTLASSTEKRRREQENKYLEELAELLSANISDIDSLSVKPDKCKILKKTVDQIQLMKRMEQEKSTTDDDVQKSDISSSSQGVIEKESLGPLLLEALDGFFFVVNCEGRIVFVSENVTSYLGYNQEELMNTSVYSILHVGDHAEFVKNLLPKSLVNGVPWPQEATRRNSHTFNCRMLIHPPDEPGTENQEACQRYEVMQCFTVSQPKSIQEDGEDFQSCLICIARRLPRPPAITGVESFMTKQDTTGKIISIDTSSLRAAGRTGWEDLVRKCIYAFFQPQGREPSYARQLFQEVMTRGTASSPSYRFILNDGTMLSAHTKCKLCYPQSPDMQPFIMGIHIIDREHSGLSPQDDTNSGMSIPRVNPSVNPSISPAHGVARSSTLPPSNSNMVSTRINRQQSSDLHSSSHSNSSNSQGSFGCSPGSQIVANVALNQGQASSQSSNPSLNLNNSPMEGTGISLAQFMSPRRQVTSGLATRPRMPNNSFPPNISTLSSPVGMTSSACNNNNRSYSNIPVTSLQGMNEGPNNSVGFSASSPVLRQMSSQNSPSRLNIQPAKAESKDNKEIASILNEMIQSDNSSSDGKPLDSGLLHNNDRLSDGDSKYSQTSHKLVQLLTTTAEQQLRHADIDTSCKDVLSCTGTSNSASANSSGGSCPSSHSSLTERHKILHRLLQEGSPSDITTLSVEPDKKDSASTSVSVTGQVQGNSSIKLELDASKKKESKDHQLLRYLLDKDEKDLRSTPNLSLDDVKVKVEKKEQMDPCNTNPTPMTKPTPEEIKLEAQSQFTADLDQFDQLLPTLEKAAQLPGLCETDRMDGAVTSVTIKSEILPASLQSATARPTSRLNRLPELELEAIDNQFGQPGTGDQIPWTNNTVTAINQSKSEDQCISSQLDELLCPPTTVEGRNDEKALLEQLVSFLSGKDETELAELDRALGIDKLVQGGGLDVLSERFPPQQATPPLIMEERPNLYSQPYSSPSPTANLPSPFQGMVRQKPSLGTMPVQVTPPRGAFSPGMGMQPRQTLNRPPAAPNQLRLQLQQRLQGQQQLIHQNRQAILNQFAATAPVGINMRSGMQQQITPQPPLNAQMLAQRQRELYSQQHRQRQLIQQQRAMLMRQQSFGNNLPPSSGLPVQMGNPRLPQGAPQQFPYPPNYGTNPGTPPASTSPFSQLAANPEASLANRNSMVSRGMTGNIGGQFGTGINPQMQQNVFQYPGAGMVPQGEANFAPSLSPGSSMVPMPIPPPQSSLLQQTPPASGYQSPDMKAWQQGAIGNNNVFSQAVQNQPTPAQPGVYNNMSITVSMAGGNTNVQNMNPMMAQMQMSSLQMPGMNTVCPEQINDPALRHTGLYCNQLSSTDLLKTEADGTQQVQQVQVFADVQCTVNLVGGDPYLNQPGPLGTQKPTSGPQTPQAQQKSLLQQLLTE
26S proteasome non-ATPase regulatory subunit 14, sequence (O00487 whole entry): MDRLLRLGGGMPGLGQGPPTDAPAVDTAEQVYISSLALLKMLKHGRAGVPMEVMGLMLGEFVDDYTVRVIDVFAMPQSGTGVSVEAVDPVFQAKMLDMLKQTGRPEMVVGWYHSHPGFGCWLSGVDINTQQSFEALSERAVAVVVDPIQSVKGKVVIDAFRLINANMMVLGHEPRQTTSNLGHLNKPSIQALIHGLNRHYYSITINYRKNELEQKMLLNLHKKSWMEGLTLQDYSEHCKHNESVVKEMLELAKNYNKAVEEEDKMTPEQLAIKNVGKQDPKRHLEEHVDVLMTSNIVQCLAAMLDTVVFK
FAD-linked sulfhydryl oxidase ALR, sequence (P55789 whole entry): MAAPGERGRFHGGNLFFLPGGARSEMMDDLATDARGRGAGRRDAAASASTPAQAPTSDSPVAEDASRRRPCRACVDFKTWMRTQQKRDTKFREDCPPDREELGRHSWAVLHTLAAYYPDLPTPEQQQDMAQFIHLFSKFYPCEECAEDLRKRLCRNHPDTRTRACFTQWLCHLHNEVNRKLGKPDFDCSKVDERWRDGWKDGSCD

For `C[C@H]1CCCCO[C@H](CN(C)C(=O)Nc2ccc(C(F)(F)F)cc2)[C@@H](C)CN([C@@H](C)CO)C(=O)c2cc(NC(=O)CCC(F)(F)F)ccc2O1`, the AC50 [1] was 39.9 µM (active), the AC50 [2] was 54.7 µM (active) and the AC50 (Paired box protein Pax-8) was 6.57 µM (active).
For `Cc1ccc2[nH]c(C(=O)O)c(NC(=O)CN3CCN(c4cccc(C)c4C)CC3)c2c1`, the CC50 [3] was 13.9 µM (active), the EC50 [4] was 5.05 µM (active) and the AC50 [5] was 16.3 µM (active). The EC50 [6] was > 50 µM (active).
For `Cn1c(=O)cc(SCC(=O)NCC2CCCO2)c2ccc(Cl)cc21` (stereo not drawn), the EC50 [7] was > 79.4 µM (not active), the EC50 [8] was > 79.4 µM (inactive) and the EC50 [9] was > 26.5 µM (not active).
With `Oc1ccc(CNc2ccccc2)c2cccnc12` the IC50 [10] was > 50 µM (not active) and the AC50 (INS1) was 14.4 µM (active).
With `COc1ccccc1NC(=O)COc1ccc(C(=O)OCC(=O)NC(C)(C)C)cc1OC` the IC50 (H9c2) was > 79 µM (inactive).
With `Cc1cccc(N2CCN(C(=O)CCc3nc(O)c4ccccc4n3)CC2)c1C` the IC50 [11] was > 47.1 µM (inactive), the IC50 (H9c2) was > 79 µM (inactive) and the EC50 [12] was > 53 µM (inactive).
With `N#C/C(=C\C1=C(N2CCOCC2)C(=C\c2ccc(Cl)cc2)/CC1)C(=O)Nc1ccccc1F` the IC50 [13] was > 100 µM (inactive), the CC50 [3] was 18.3 µM (active) and the IC50 [14] was 6.46 µM (active). The IC50 (Prothrombin [15]) was 17 µM (active).
For `COc1cc(Nc2c3c(nc4ccccc24)CCC3)cc(OC)c1OC`, the EC50 [16] was 2.38 µM (active), the EC50 (BJ [17]) was 2.86 µM (active) and the EC50 (BJ [18]) was 42.7 µM (inconclusive). For the same compound, the EC50 (BJ [19]) was 18.5 µM (inconclusive).
For `CC(=O)N1C(=O)/C(=C2\SC(=S)N(c3c(C)n(C)n(-c4ccccc4)c3=O)C2=O)c2ccccc21`, the IC50 [10] was > 50 µM (not active), the IC50 [20] was > 66 µM (inactive) and the IC50 (Prothrombin [21]) was 8.97 µM (active). For the same compound, the IC50 [22] was > 66 µM (inactive).
In the case of `COC(=O)C1=C(C)N(CC2CC2)C(=O)N[C@H]1c1ccc(Br)cc1`, the CC50 [3] is reported as 35.1 µM (active), the AC50 [23] is reported as 14.7 µM (active) and the AC50 [24] is reported as 7.14 µM (active). For the same compound, the AC50 [25] was 11.7 µM (active), the AC50 [26] was 8.52 µM (active) and the EC50 [6] was > 50 µM (active).
In the case of `COC(=O)Cc1c(C)c2c(O)cc(C)cc2oc1=O`, the EC50 [7] is reported as > 79.4 µM (not active), the EC50 [8] is reported as > 79.4 µM (inactive) and the EC50 [9] is reported as > 79.4 µM (not active).
For `CCc1cc2c(CN3CCN(Cc4ccccc4)CC3)cc(=O)oc2cc1O`, the EC50 (Kallikrein-7) was > 69.5 µM (inactive).

Source: ChEMBL document CHEMBL1201862, “PubChem BioAssay data set” (2004)
